A word on the melting point: it is the temperature of the solid-liquid transition. As to `CCc1nc2c(cnn2CC)c(NC2CCOCC2)c1CNC(=O)c1cccc(C(=O)NCc2ccc(Cl)c(-c3cccc(CN4CCN(C)CC4)c3)c2)c1` [Example 219, N-({6-Chloro-3′-[(4-methyl-1-piperazinyl)methyl]-3-biphenylyl}methyl)-N′-{[1,6-diethyl-4-(tetrahydro-2H-pyran-4-ylamino)-1H-pyrazolo[3,4-b]pyridin-5-yl]methyl}-1,3-benzenedicarboxamide], the melting point is 112 to 114 °C.
The compound `CCc1nc2c(cnn2CC)c(NC2CCOCC2)c1CNC(=O)c1cccc(C(=O)NCc2cc(Cl)cc(-c3cccc(CN4CCCNCC4)c3)c2)c1` [Example 430, N-{[5-Chloro-3′-(hexahydro-1H-1,4-diazepin-1-ylmethyl)-3-biphenylyl]methyl}-N′-{[1,6-diethyl-4-(tetrahydro-2H-pyran-4-ylamino)-1H-pyrazolo[3,4-b]pyridin-5-yl]methyl}-1,3-benzenedicarboxamide] yielded a melting point of 121 to 124 °C.
Regarding `CCc1nc2c(cnn2CC)c(NC2CCOCC2)c1CNC(=O)c1cccc(C(=O)NCc2ccc(F)c(-c3cccc(CN(C)CCN(C)C)c3)c2)c1` [Example 206, N-{[1,6-Diethyl-4-(tetrahydro-2H-pyran-4-ylamino)-1H-pyrazolo[3,4-b]pyridin-5-yl]methyl}-N′-[(3′-{[[2-(dimethylamino)-ethyl](methyl)amino]methyl}-6-fluoro-3-biphenylyl)methyl]-1,3-benzenedicarboxamide], the melting point lay within 126 to 129 °C.
`CCc1nc2c(cnn2CC)c(NC2CCOCC2)c1CNC(=O)c1cc(C)cc(C(=O)NCc2cccc(-c3cccc(C=O)c3)c2)c1` displayed a melting point of 109 to 112 °C.
With `CCc1nc2c(cnn2CC)c(NC2CCOCC2)c1CNC(=O)c1cccc(C(=O)NCc2ccc(Cl)c(-c3cccc(CN4CCN[C@@H](C)C4)c3)c2)c1` [Example 214, N-[(6-Chloro-3′-{[(3S)-3-methyl-1-piperazinyl]methyl}-3-biphenylyl)methyl]-N′-{[1,6-diethyl-4-(tetrahydro-2H-pyran-4-ylamino)-1H-pyrazolo[3,4-b]pyridin-5-yl]methyl}-1,3-benzenedicarboxamide], the melting point lay within 117 to 120 °C.
`CCc1nc2c(cnn2CC)c(NC2CCOCC2)c1CNC(=O)c1cccc(C(=O)NCc2ccc(Cl)c(-c3cccc(CN4C[C@@H](C)N[C@@H](C)C4)c3)c2)c1` [Example 220, N-[(6-Chloro-3′-{[(3R,5S)-3,5-dimethyl-1-piperazinyl]methyl}-3-biphenylyl)methyl]-N′-{[1,6-diethyl-4-(tetrahydro-2H-pyran-4-ylamino)-1H-pyrazolo[3,4-b]pyridin-5-yl]methyl}-1,3-benzenedicarboxamide] displayed a melting point of 121 to 124 °C.
As for `CCc1nc2c(cnn2CC)c(NC2CCOCC2)c1CNC(=O)c1cccc(C(=O)NCc2ccc(F)c(-c3cccc(CN4CCCNCC4)c3)c2)c1` [Example 204, N-{[1,6-Diethyl-4-(tetrahydro-2H-pyran-4-ylamino)-1H-pyrazolo[3,4-b]pyridin-5-yl]methyl}-N′-{[6-fluoro-3′-(hexahydro-1H-1,4-diazepin-1-ylmethyl)-3-biphenylyl]methyl}-1,3-benzenedicarboxamide], the melting point was 145 to 148 °C.
In turn, `CCc1nc2c(cnn2CC)c(NC2CCOCC2)c1CNC(=O)c1cc(C)cc(C(=O)NCc2ccc(OC)c(-c3cccc(C=O)c3)c2)c1` registered a melting point of 117 to 119 °C.
`CCc1nc2c(cnn2CC)c(NC2CCOCC2)c1CNC(=O)c1cc(C)cc(C(=O)NCc2ccc(OC)c(-c3cccc(CC4CCN(C)CC4)c3)c2)c1` [Example 427, N-{[1,6-Diethyl-4-(tetrahydro-2H-pyran-4-ylamino)-1H-pyrazolo[3,4-b]pyridin-5-yl]methyl}-5-methyl-N′-({6-(methyloxy)-3′-[(1-methyl-4-piperidinyl)methyl]-3-biphenylyl}methyl)-1,3-benzenedicarboxamide]: the melting point lay in the range of 115 to 117 °C.

(Values after US8067408B2, “Dual pharmacophores—PDE4-muscarinic antagonistics” (priority 2008, dated 2011).)
